Patent US10538567B2, “Compounds as peptidic trigonal GLP1/glucagon/GIP receptor agonists” (priority 2016, dated 2020)
Numbered stars: 1 amine (or outer) side, 2 acyl side, 3 side chain; on linkers, the order of the positions; unused ones are H or OH. Square brackets hold non-standard residues; d marks the D form. Side chains are listed from the residue outwards. Peptide text beside a SMILES is read from it. * marks the point of attachment. γGlu = O=C(O)[C@H](CCC(=O)[*:2])N[*:1]; Palmitoyl = CCCCCCCCCCCCCCCC(=O)*; Aib = CC(C)(N)C(=O)O

Columns and labels:
[1] = Chemical stability assessment, UPLC-UV purity loss in buffer system A; assay type: physicochemical; conditions: 1 mg/ml, 25 mM acetate buffer pH 4.5 with m-cresol
Procedure, shortened: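 Peptide at 1 mg/mL pure compound (purity-corrected) in 25 mM acetate buffer pH 4.5 with L-methionine, m-cresol and glycerol was sterile-filtered and stored 28 days at 5 and 40° C. UPLC-UV purity (peptide peak area/total area) was compared with the starting value to give relative purity loss in %.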

[2] = Thioflavin T (ThT) assay for physical stability (fibrillation); assay type: physicochemical; conditions: 3 mg/ml, 100 mM acetate pH 4.5 with m-cresol, 37° C. shaking
Procedure, shortened: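 Peptides at 3 mg/ml final with 100 μM ThT final in 100 mM acetate pH 4.5 containing 2.7 mg/mL m-cresol, eight replicates. Stressed at 37° C by repeated cycles of 10 s shaking at 960 rpm and 50 s rest. Fluorescence read every 20 minutes; lag time in hours taken from the sigmoidal kinetic curve.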

[3] = system: female diabetic db/db mice; test: Acute effects after s.c. treatment on blood glucose in non-fasting female diabetic db/db mice; assay type: in vivo; conditions: single 30 μg/kg s.c.
Protocol: Female healthy, lean BKS.Cg-(lean)/OlaHsd and diabetes-prone, obese BKS.Cg-+Lepr^db/+Lepr^db/OlaHsd mice were ordered group housed from Envigo RMS Inc., shipped group housed and remained group housed in shoebox caging with wood chip bedding until day 15 of the predose phase. At the study start mice were approximately 12 weeks old.
Mice were housed under vivarium conditions including a 12 h light/dark cycle (light phase 04:00 AM-4:00 PM), room temperatures between 23-26° C. and a relative humidity between 30-70%. All animals had free access to water and Purina Fomulab Diet 5008.
On predose day 9 blood glucose and body mass (approximately between 08:00-10:00 AM) as well as HbA1c measurements were performed. On day 15 of the predose phase animals were assigned to treatment groups (n=8) and to new cages to match mean HbA1c and body masses between all db/db groups. An age-matched lean group was included in the study as a healthy, lean reference.
Prior to day 1 of the dosing phase, the test article was diluted with Phosphate Buffered Saline (PBS, Gibco, without CaCl2 and MgCl2) to a concentration of 1 mg/mL and aliquots of this stock solution were stored at approximately ≤−60° C. On day 1 of the dosing phase the stock aliquot was thawed and the injected test article solution was prepared fresh by diluting it with PBS to achieve the desired concentration.
On Day 1 of the dosing phase db/db mice were either treated once with a s.c. injection of PBS-vehicle or 30 μg/kg test article. The lean reference group was treated once with a s.c. injection of PBS-vehicle. The dosing was initiated and completed between 08:00 and 10:00 AM. The applied volume was 5 ml/kg and the dose was adjusted to the most recent body mass recording of each individual.
Animals had unlimited access to water and feed during the experiment. On day 1 of the dosing phase approximately 5 μL of blood were collected via tail clips at minute −30 and 0 prior to any other inlife activities. At minute 0 mice received a s.c. dose of either PBS-vehicle or 30 μg/kg test article. Further blood samples were harvested at hour 0.25, 0.5, 1, 1.5, 2, 3, 4, 6, 8, and 24 post-dose. Glucose measurements were performed in whole blood using AlphaTRAK glucometers. If the glucose concentrations of two measurements differed by more than 20 mg/dL a third value was recorded. The Area Under the Curve (AUC) for blood glucose was calculated via the trapezoid method and for the duration of the 24 post-dose hours.
In the Figures data are depicted as means±SEM. […] A One Way Analysis of Variance and multiple comparisons (Dunnett's Method) were performed comparing the group of diabetic, obese db/db vehicle mice (n=8) with each diabetic, obese db/db test article treated mice (n=8). […] Non-diabetic, lean-vehicle group data are depicted in the Figures serving as a reference dataset for the non-obese, non-diabetic state.

Chemical stability [relative purity loss 28 days 40° C.] (%) at pH 4.5 [1]	Lag time before increase [2]	SMILES	mean blood glucose concentration 24 hours post-dose relative to baseline [3]	time to normalise hyperglycemia to the non-fasting blood glucose concentrations of lean reference mice [3]
7.1%	>45 h	CCCCCCCCCCCCCCCC(=O)N[C@@H](CCC(=O)N[C@@H](CCC(=O)NCCCC[C@H](NC(=O)[C@H](CC(C)C)NC(=O)[C@H](CCCCN)NC(=O)[C@H](CO)NC(=O)[C@H](CC(C)C)NC(=O)[C@H](CC(=O)O)NC(=O)[C@H](CO)NC(=O)[C@@H](NC(=O)[C@H](Cc1ccccc1)NC(=O)[C@@H](NC(=O)CNC(=O)[C@H](Cc1c[nH]cn1)NC(=O)C(C)(C)NC(=O)[C@@H](N)Cc1c[nH]cn1)[C@@H](C)O)[C@@H](C)O)C(=O)N[C@@H](CCC(=O)O)C(=O)N[C@@H](CCC(=O)O)C(=O)N[C@@H](CCC(N)=O)C(=O)N[C@@H](CCCNC(=N)N)C(=O)N[C@@H](CCC(N)=O)C(=O)N[C@@H](CCCCN)C(=O)N[C@@H](CCC(=O)O)C(=O)N[C@@H](Cc1ccccc1)C(=O)N[C@H](C(=O)N[C@@H](CCC(=O)O)C(=O)N[C@@H](Cc1c[nH]c2ccccc12)C(=O)N[C@@H](CC(C)C)C(=O)N[C@@H](CCCCN)C(=O)N[C@@H](C)C(=O)NCC(=O)NCC(=O)N[C@@H](Cc1c[nH]cn1)C(=O)N1CCC[C@H]1C(=O)N[C@@H](CO)C(=O)NC(C)(C)C(=O)N[C@@H](CCCCN)C(=O)N1CCC[C@H]1C(=O)N1CCC[C@H]1C(=O)N1CCC[C@H]1C(=O)N[C@@H](CCCCN)C(N)=O)[C@@H](C)CC)C(=O)O)C(=O)O [SEQ ID NO: 6, H-Aib-H-G-T-F-T-S-D-L-S-K-L-K[gGlu-gGlu-Palm]-E-E-Q-R-Q-K-E-F-I-E-W-L-K-A-G-G-H-P-S-Aib-K-P-P-P-K-NH2]	at or close to baseline	–
8.1%	>45 h	CCCCCCCCCCCCCCCC(=O)N[C@@H](CCC(=O)N[C@@H](CCC(=O)NCCCC[C@H](NC(=O)[C@H](CC(C)C)NC(=O)[C@H](CCCCN)NC(=O)[C@H](CO)NC(=O)[C@H](CC(C)C)NC(=O)[C@H](CC(=O)O)NC(=O)[C@H](CO)NC(=O)[C@@H](NC(=O)[C@H](Cc1ccccc1)NC(=O)[C@@H](NC(=O)CNC(=O)[C@H](Cc1c[nH]cn1)NC(=O)C(C)(C)NC(=O)[C@@H](N)Cc1c[nH]cn1)[C@@H](C)O)[C@@H](C)O)C(=O)N[C@@H](CCC(=O)O)C(=O)N[C@@H](CCC(=O)O)C(=O)N[C@@H](CCC(N)=O)C(=O)N[C@@H](CCCNC(=N)N)C(=O)N[C@@H](CCC(N)=O)C(=O)N[C@@H](CCCCN)C(=O)N[C@@H](CCC(=O)O)C(=O)N[C@@H](Cc1ccccc1)C(=O)N[C@H](C(=O)N[C@@H](CCC(=O)O)C(=O)N[C@@H](Cc1c[nH]c2ccccc12)C(=O)N[C@@H](CC(C)C)C(=O)N[C@@H](CCCCN)C(=O)N[C@@H](C)C(=O)N[C@H](C)C(=O)NCC(=O)N[C@@H](Cc1c[nH]cn1)C(=O)N1CCC[C@H]1C(=O)N[C@@H](CO)C(=O)NC(C)(C)C(=O)N[C@@H](CCCCN)C(=O)N1CCC[C@H]1C(=O)N1CCC[C@H]1C(=O)N1CCC[C@H]1C(=O)N[C@@H](CCCCN)C(N)=O)[C@@H](C)CC)C(=O)O)C(=O)O [SEQ ID NO: 7, H-Aib-H-G-T-F-T-S-D-L-S-K-L-K[gGlu-gGlu-Palm]-E-E-Q-R-Q-K-E-F-I-E-W-L-K-A-dAla-G-H-P-S-Aib-K-P-P-P-K-NH2] (H-H[Aib]HGTFTSDLSKLK([γGlu-γGlu-Palmitoyl])EEQRQKEFIEWLKA[dA]GHPS[Aib]KPPPK-NH2)	at baseline	≤ 6 h
10.3%	>45 h	CCCCCCCCCCCCCCCC(=O)N[C@@H](CCC(=O)N[C@@H](CCC(=O)NCCCC[C@H](NC(=O)[C@H](CC(C)C)NC(=O)[C@H](CCCCN)NC(=O)[C@H](CO)NC(=O)[C@H](CC(C)C)NC(=O)[C@H](CC(=O)O)NC(=O)[C@H](CO)NC(=O)[C@@H](NC(=O)[C@H](Cc1ccccc1)NC(=O)[C@@H](NC(=O)CNC(=O)[C@H](Cc1c[nH]cn1)NC(=O)C(C)(C)NC(=O)[C@@H](N)Cc1c[nH]cn1)[C@@H](C)O)[C@@H](C)O)C(=O)N[C@@H](CCC(=O)O)C(=O)N[C@@H](CCC(=O)O)C(=O)N[C@@H](CCC(N)=O)C(=O)N[C@@H](CCCNC(=N)N)C(=O)N[C@@H](CCC(N)=O)C(=O)N[C@@H](CCCCN)C(=O)N[C@@H](CCC(=O)O)C(=O)N[C@@H](Cc1ccccc1)C(=O)N[C@H](C(=O)N[C@@H](CCC(=O)O)C(=O)N[C@@H](Cc1c[nH]c2ccccc12)C(=O)N[C@@H](CC(C)C)C(=O)N[C@@H](CCCCN)C(=O)N[C@@H](C)C(=O)NCC(=O)NCC(=O)N1CCC[C@H]1C(=O)N1CCC[C@H]1C(=O)N[C@@H](CO)C(=O)NC(C)(C)C(=O)N[C@@H](CCCCN)C(=O)N1CCC[C@H]1C(=O)N1CCC[C@H]1C(=O)N1CCC[C@H]1C(=O)N[C@@H](CCCCN)C(N)=O)[C@@H](C)CC)C(=O)O)C(=O)O [SEQ ID NO: 8, H-Aib-H-G-T-F-T-S-D-L-S-K-L-K[gGlu-gGlu-Palm]-E-E-Q-R-Q-K-E-F-I-E-W-L-K-A-G-G-P-P-S-Aib-K-P-P-P-K-NH2]	at or close to baseline	–
6.9%	>45 h	CCCCCCCCCCCCCCCC(=O)N[C@@H](CCC(=O)N[C@@H](CCC(=O)NCCCC[C@H](NC(=O)[C@H](CC(C)C)NC(=O)[C@H](CCCCN)NC(=O)[C@H](CO)NC(=O)[C@H](CC(C)C)NC(=O)[C@H](CC(=O)O)NC(=O)[C@H](CO)NC(=O)[C@@H](NC(=O)[C@H](Cc1ccccc1)NC(=O)[C@@H](NC(=O)CNC(=O)[C@H](Cc1c[nH]cn1)NC(=O)C(C)(C)NC(=O)[C@@H](N)Cc1c[nH]cn1)[C@@H](C)O)[C@@H](C)O)C(=O)N[C@@H](CCC(=O)O)C(=O)N[C@@H](CCC(=O)O)C(=O)N[C@@H](CCC(N)=O)C(=O)N[C@@H](CCCNC(=N)N)C(=O)N[C@@H](CCC(N)=O)C(=O)N[C@@H](CCCCN)C(=O)N[C@@H](CCC(=O)O)C(=O)N[C@@H](Cc1ccccc1)C(=O)N[C@H](C(=O)N[C@@H](CCC(=O)O)C(=O)N[C@@H](Cc1c[nH]c2ccccc12)C(=O)N[C@@H](CC(C)C)C(=O)N[C@@H](CCCCN)C(=O)N[C@@H](C)C(=O)N[C@H](C)C(=O)NCC(=O)N1CCC[C@H]1C(=O)N1CCC[C@H]1C(=O)N[C@@H](CO)C(=O)NC(C)(C)C(=O)N[C@@H](CCCCN)C(=O)N1CCC[C@H]1C(=O)N1CCC[C@H]1C(=O)N1CCC[C@H]1C(=O)N[C@@H](CCCCN)C(N)=O)[C@@H](C)CC)C(=O)O)C(=O)O [SEQ ID NO: 9, H-Aib-H-G-T-F-T-S-D-L-S-K-L-K[gGlu-gGlu-Palm]-E-E-Q-R-Q-K-E-F-I-E-W-L-K-A-dAla-G-P-P-S-Aib-K-P-P-P-K-NH2] (H-H[Aib]HGTFTSDLSKLK([γGlu-γGlu-Palmitoyl])EEQRQKEFIEWLKA[dA]GPPS[Aib]KPPPK-NH2)	at or close to baseline	–
